2 compounds from paper PMC8589628, “Characterization and Antimicrobial Studies of Iturin-Like and Bogorol-Like Lipopeptides From Brevibacillus spp. Strains GI9 and SKDU10” (Frontiers in Microbiology, 2021) can be followed below.

Test [1] deals with S. aureus MTCC 1430. The format is cell-based, Staphylococcus aureus. The conditions noted are these: MTCC 1430, 24 h. As to the method: (§1) The antimicrobial activity of HPLC purified compounds was determined against various test strains including S. aureus MTCC 1430, Vibrio cholera MTCC 3904, Bacillus subtilis MTCC 121, Listeria monocytogenes MTCC 839, C. albicans MTCC 183, C. albicans MTCC 1637, C. albicans MTCC 227, C. tropicalis MTCC 184, C. glabrata MTCC 3019, and C. inconspicua MTCC 1074. Antimicrobial activity was also tested against clinical Candida strains and phytopathogenic fungi viz. Fusarium moniliforme MTCC 158, Alternaria brassicicola MTCC 2102 and Colletotrichum acutatum MTCC 1037. Bacterial and Candida test strains were grown in NB and yeast malt broth (YMB), respectively. Fungal test strains were grown in potato dextrose broth (PDB). Minimum inhibitory concentrations (MICs) of purified compounds were evaluated against test organisms by using a microtiter plate dilution assay. Mid-log-phase test strains (5 × 10^5 CFU/ml) were incubated in a 96-well plate with different concentrations of the lipopeptides for 24–48 h at 37°C (final volume of 200 μl). OD was measured at 600 nm after 24 and 48 h for bacteria and yeast, respectively, using an ELISA microplate reader (Thermo Scientific, United States). MIC against phytopathogenic fungi was determined using the 96-well microtiter plate method ([Sharma et al., 2020]).

In test [2] the test system is S. aureus MTCC 1430. Description: TLC-bioautography assay. The format is cell-based, Staphylococcus aureus. The conditions noted are these: 10 μg/ml loaded on TLC silica gel; overlay on NA, 24 h at 37°C. As to the method: Overlay thin-layer chromatography (TLC)-bioautography assay was used to determine the antimicrobial activity of the purified antimicrobial compounds ([Wedge and Nagle, 2000]). For bioautography, the antimicrobial compounds (10 μg/ml) were loaded on TLC silica gel plates in duplicates and were developed in one dimension using a solvent system containing chloroform: […]: water (65:12:4 v/v). TLC plate was cut into two vertical parts after running. One part of the TLC was used for direct detection of antimicrobial activity by overlaying it on NA containing S. aureus MTCC 1430 (about 10^6 cells ml^–1). After 1 h diffusion at 4°C, the TLC silica plate was removed and the NA plate was incubated for 24 h at 37°C. Other part of the TLC was sprayed with phosphomolybdic acid as a staining reagent for lipids.

In test [3] the test system is C. albicans MTCC 183. Put plainly: Time kill assay. The format is cell-based, Candida albicans. Particulars: for Time to complete killing: C. albicans MTCC 183, 5X MIC, in PBS, CFU count. The method, then:
Killing kinetics of purified compounds was performed using cells of S. aureus MTCC 1430, V. cholerae MTCC 3904, and C. albicans MTCC 183. Test strains were grown to obtain OD between 0.2 and 0.3 (OD 600 nm), centrifuged, and washed thrice with sterile PBS. Pellets were suspended in PBS and treated with different concentrations of active compounds. Cells after treatment were washed, resuspended, and serially diluted cell suspensions were plated on NA plates. After overnight incubation at 37°C, CFU were recorded ([Singh et al., 2021]).

Test [4] has as its system C. glabrata MTCC 3019. Put plainly: MIC, microtiter plate dilution assay. The format is cell-based. The conditions noted are these: YMB, 5 × 10^5 CFU/ml, 37°C, OD 600 nm after 48 h. The method, then:
as §1

For test [5], the system named is C. haemulonii MTCC 2766. Put plainly: MIC, microtiter plate dilution assay. The conditions noted are these: YMB, 5 × 10^5 CFU/ml, 37°C, OD 600 nm after 48 h. The format is cell-based. As to the method:
as §1

In test [6] the test system is C. tropicalis MTCC 184. Put plainly: MIC, microtiter plate dilution assay. The format is cell-based. Particulars: YMB, 5 × 10^5 CFU/ml, 37°C, OD 600 nm after 48 h. The method, then:
as §1

For test [7], the system named is C. inconspicua MTCC 1074. Put plainly: MIC, microtiter plate dilution assay. The format is cell-based. The conditions noted are these: YMB, 5 × 10^5 CFU/ml, 37°C, OD 600 nm after 48 h. The method, then: as §1
For test [8], the system named is C. albicans MTCC 183. Description: MIC, microtiter plate dilution assay. The format is cell-based, Candida albicans. The conditions noted are these: YMB, 5 × 10^5 CFU/ml, 37°C, OD 600 nm after 48 h. As to the method: as §1
The subject of test [9] is C. albicans MTCC 1637. Put plainly: MIC, microtiter plate dilution assay. The format is cell-based, Candida albicans. Particulars: YMB, 5 × 10^5 CFU/ml, 37°C, OD 600 nm after 48 h. As to the method:
as §1

Test [10] relates to C. albicans MTCC 227. Put plainly: MIC, microtiter plate dilution assay. The conditions noted are these: YMB, 5 × 10^5 CFU/ml, 37°C, OD 600 nm after 48 h. The format is cell-based, Candida albicans. As to the method:
as §1

Test [11] concerns C. albicans 400054. Description: MIC, microtiter plate dilution assay, clinical strain. The format is cell-based, Candida albicans. Particulars: YMB, 37°C, OD 600 nm after 48 h. The method, then:
(§2) Brevibacillus sp. strains GI-9 and SKDU10 were known to produce class IId bacteriocins identified as laterosporulins a ([Singh et al., 2012]; [Baindara et al., 2016]). Both strains were grown on nutrient agar (NA, Himedia, India). All test strains used in this study were obtained from Microbial Type Culture Collection and Gene bank (MTCC), Chandigarh, India. Clinical Candida strains were obtained from the National Culture Collection of Pathogenic Fungi (NCCPF), PGIMER, Chandigarh, India, and all strains were grown on recommended media.
as §1

The test system of test [12] is C. auris 470126. The description is as above. The format is cell-based. Particulars: YMB, 37°C, OD 600 nm after 48 h. The method, then:
as §2, §1

Test [13] relates to C. haemulonii 470125. Described as above. The format is cell-based. Particulars: YMB, 37°C, OD 600 nm after 48 h. As to the method: as §2, §1
Test [14] relates to C. kefyr 410004. The test is described as above. The format is cell-based. The conditions noted are these: YMB, 37°C, OD 600 nm after 48 h. The method, then: as §2, §1
The test system of test [15] is C. tropicalis 420024. The description is as above. The format is cell-based. Particulars: YMB, 37°C, OD 600 nm after 48 h. The method, then:
as §2, §1

For test [16], the system named is C. krusei 440009. The description is as above. The conditions noted are these: YMB, 37°C, OD 600 nm after 48 h. The format is cell-based. As to the method:
as §2, §1

The test system of test [17] is C. parapsilosis 450030. The test is described as above. The format is cell-based. The conditions noted are these: YMB, 37°C, OD 600 nm after 48 h. The method, then: as §2, §1
The subject of test [18] is C. rugosa 470141. Described as above. Particulars: YMB, 37°C, OD 600 nm after 48 h. The format is cell-based. As to the method:
as §2, §1

Test [19] concerns C. acutatum MTCC1037. Put plainly: MIC against phytopathogenic fungi, 96-well microtiter plate method. Particulars: PDB. The format is cell-based, Colletotrichum acutatum. As to the method: as §1
The subject of test [20] is F. moniliforme MTCC 158. The test is described as above. The format is cell-based, Fusarium moniliforme. Particulars: PDB. The method, then: as §1
For test [21], the system named is A. brassicicola MTCC 2102. The description is as above. The format is cell-based, Alternaria brassicicola. The conditions noted are these: PDB. As to the method: as §1

Peptide text beside a SMILES is read from it. * marks the point of attachment. X1 = CC(C)CCCCCCCCCCCCC(=O)* Some results are limits rather than exact numbers.

The compound `CC(C)CCCCCCCCCCCCC(=O)N[C@H](C(=O)NCC(=O)N[C@@H](C)C(=O)N[C@@H](CO)C(=O)N[C@@H](Cc1c[nH]cn1)C(=O)N[C@@H](CCC(N)=O)C(=O)N[C@@H](CCC(N)=O)C(=O)O)[C@@H](C)O` [ILL] (X1-TGASHQQ-OH; N-terminus assumed) gave an MIC value in [1] of 150 to 170 µg/mL. Further, the “Inhibition of S. aureus MTCC 1430 in TLC-based bioautography” value in [2] was “inhibited S. aureus MTCC 1430”. In [3] (C. albicans MTCC 183, 1X MIC, 4 h), the Reduction in growth was found to be 2 log. The “Time to complete killing” value in [3] is reported as 4 h.

For “Dhb-Tyr-Orn-Ile-Val-Val-Lys-Val-Leu-Asp-Val-Glu [BLL, bogorol like lipopeptide purified from Brevibacillus sp. strain SKDU10; 12 amino acids and C17 hydroxy fatty acid side chain]”, the MIC value lay within 290 to 300 µg/mL in test [4]; 340 to 360 µg/mL in test [5]; 290 to 310 µg/mL in [6]; 100 to 110 µg/mL in test [7]; 150 to 170 µg/mL in [8]; 250 to 260 µg/mL in [9]. Also, the MIC value fell in the range of 300 to 310 µg/mL in test [10]; 240 to 260 µg/mL in test [11]; 140 to 160 µg/mL in test [12]; 245 to 255 µg/mL in test [13]; 190 to 210 µg/mL in test [14]; 300 to 320 µg/mL in test [15]. In addition, the MIC value was in the range of 240 to 250 µg/mL in test [16]; 290 to 310 µg/mL in [17]; 240 to 250 µg/mL in [18]; 430 to 450 µg/mL in [19]; 490 to 510 µg/mL in test [20]; 500 to 520 µg/mL in [21]. Besides, the “Inhibition of S. aureus MTCC 1430 in TLC-based bioautography” value in [2] was “active against S. aureus MTCC 1430”. For the same compound, the “Complete killing of cells within 4 h” value in test [3] (C. albicans MTCC 183, 1X MIC) is on record as “not observed”; in test [3] (C. albicans MTCC 183, 2X MIC), “not observed”. In test [3], the “Time to complete killing” value is on record as no more than 4 h.
